Laboratory results from paper PMC5581314, “Targeting the Type II Secretion System: Development, Optimization, and Validation of a High-Throughput Screen for the Identification of Small Molecule Inhibitors” (Frontiers in Cellular and Infection Microbiology, 2017).
Like-named read-outs stand apart in the source and are kept apart here.

Target: T1, LipA (Acinetobacter baumannii, UniProt A0ABX6CKD6)
T1 construct: gene lip; secreted LipA from plasmid-encoded lipBA, in culture supernatant
Assay: 4-nitrophenyl myristate lipase assay; IC50 in whole culture, direct inhibition by cell-free supernatant counter-screen
Assay type: cell-based

Structure (SMILES) | IC50 (read-out: IC50) [µM] | IC50 [µM]
CNCCC=C1c2ccccc2CCc2ccccc21 [Aventyl] | 14.5 | –
CNCCCN1c2ccccc2CCc2ccccc21 [Desiprimine] | – | 16.5
CN(CCCN1c2ccccc2CCc2ccccc21)CC(=O)c1ccc(Cl)cc1 [Lofepramine] | 21 | –
CNCCC=C1c2ccccc2C=Cc2ccccc21 [Norcyclobenzaprine] | 16 | –
CCCCCCCCCCC[C@@H](C[C@@H]1OC(=O)[C@H]1CCCCCC)OC(=O)[C@H](CC(C)C)NC=O [Orlistat] | – | 0.0406
CNCCCC1c2ccccc2C=Cc2ccccc21 [Vivactil] | 10 | –
